Legend:
[1] = tested on: ooinutade (pale smartweed, Persicaria lapathifolia); test: Experiment 9 foliage treatment: ooinutade; assay type: in vivo; set-up: key: 5: completely killed; 4: seriously injured; 3: considerably injured; 2: somewhat injured; 1: slightly injured; 0: not injured (normally grown); details: foliage spray of wettable powder suspension, evaluated 4 weeks after treatment
Method: (§1) Upon seedling stage (two- or three-leaved stage) of ichibi (velvetleaf, Abutilon theophrasti), onamomi (heartleaf cocklebur, Xanthium strumarium) (4L stage), noasagao (blue morningglory, Ipomoea indica) and ooinutade (pale smartweed, Persicaria lapathifolia) which were grown on a cultivated soil put in pots of 1/8850 ares, a selected compound obtained in a manner analogous to Example 14, in suspended wettable powder, was sprayed to each plant. After that, the pots were kept in a glass chamber to allow each plant to grow, and after the lapse of 4 weeks from the treatment with the selected compounds the herbicidal effects were evaluated. The evaluation of the herbicidal effects was similarly conducted as that of Experiment 1.

[2] = tested on: ooinutade (pale smartweed, Persicaria lapathifolia); test: Experiment 6 foliage treatment: ooinutade; assay type: in vivo; set-up: key: 5: completely killed; 4: seriously injured; 3: considerably injured; 2: somewhat injured; 1: slightly injured; 0: not injured (normally grown); details: foliage spray of wettable powder suspension, evaluated 4 weeks after treatment
Method: as §1, with “(4 L” for “(4L”, “11,” for “14,”

[3] = tested on: ichibi (velvetleaf, Abutilon theophrasti); test: Experiment 6 foliage treatment: ichibi; assay type: in vivo; set-up: key: 5: completely killed; 4: seriously injured; 3: considerably injured; 2: somewhat injured; 1: slightly injured; 0: not injured (normally grown); details: foliage spray of wettable powder suspension, evaluated 4 weeks after treatment
Method: as §1, with “(4 L” for “(4L”, “11,” for “14,”

[4] = tested on: onamomi (heartleaf cocklebur, Xanthium strumarium); test: Experiment 9 foliage treatment: onamomi; assay type: in vivo; set-up: key: 5: completely killed; 4: seriously injured; 3: considerably injured; 2: somewhat injured; 1: slightly injured; 0: not injured (normally grown); details: foliage spray of wettable powder suspension, evaluated 4 weeks after treatment
Method: as §1

[5] = tested on: noasagao (blue morningglory, Ipomoea indica); test: Experiment 3 foliage treatment: noasagao; assay type: in vivo; set-up: key: 5: completely killed; 4: seriously injured; 3: considerably injured; 2: somewhat injured; 1: slightly injured; 0: not injured (normally grown); details: 4 weeks after treatment
Method: as §1, with “to Example 8, in suspended” for “to Example 14, in suspended”, “conducted as to that of” for “conducted as that of”

[6] = tested on: ichibi (velvetleaf, Abutilon theophrasti); test: Experiment 3 foliage treatment: ichibi; assay type: in vivo; set-up: key: 5: completely killed; 4: seriously injured; 3: considerably injured; 2: somewhat injured; 1: slightly injured; 0: not injured (normally grown); details: 4 weeks after treatment
Method: as §1, with “to Example 8, in suspended” for “to Example 14, in suspended”, “conducted as to that of” for “conducted as that of”

[7] = tested on: ooinutade (pale smartweed, Persicaria lapathifolia); test: Experiment 3 foliage treatment: ooinutade; assay type: in vivo; set-up: key: 5: completely killed; 4: seriously injured; 3: considerably injured; 2: somewhat injured; 1: slightly injured; 0: not injured (normally grown); details: 4 weeks after treatment
Method: as §1, with “to Example 8, in suspended” for “to Example 14, in suspended”, “conducted as to that of” for “conducted as that of”

[8] = tested on: noasagao (blue morningglory, Ipomoea indica); test: Experiment 9 foliage treatment: noasagao; assay type: in vivo; set-up: key: 5: completely killed; 4: seriously injured; 3: considerably injured; 2: somewhat injured; 1: slightly injured; 0: not injured (normally grown); details: foliage spray of wettable powder suspension, evaluated 4 weeks after treatment
Method: as §1

[9] = tested on: noasagao (blue morningglory, Ipomoea indica); test: Experiment 6 foliage treatment: noasagao; assay type: in vivo; set-up: key: 5: completely killed; 4: seriously injured; 3: considerably injured; 2: somewhat injured; 1: slightly injured; 0: not injured (normally grown); details: foliage spray of wettable powder suspension, evaluated 4 weeks after treatment
Method: as §1, with “(4 L” for “(4L”, “11,” for “14,”

[10] = tested on: ichibi (velvetleaf, Abutilon theophrasti); test: Experiment 9 foliage treatment: ichibi; assay type: in vivo; set-up: key: 5: completely killed; 4: seriously injured; 3: considerably injured; 2: somewhat injured; 1: slightly injured; 0: not injured (normally grown); details: foliage spray of wettable powder suspension, evaluated 4 weeks after treatment
Method: as §1

[11] = tested on: onamomi (heartleaf cocklebur, Xanthium strumarium); test: Experiment 6 foliage treatment: onamomi; assay type: in vivo; set-up: key: 5: completely killed; 4: seriously injured; 3: considerably injured; 2: somewhat injured; 1: slightly injured; 0: not injured (normally grown); details: foliage spray of wettable powder suspension, evaluated 4 weeks after treatment
Method: as §1, with “(4 L” for “(4L”, “11,” for “14,”

[12] = tested on: onamomi (heartleaf cocklebur, Xanthium strumarium); test: Experiment 3 foliage treatment: onamomi; assay type: in vivo; set-up: key: 5: completely killed; 4: seriously injured; 3: considerably injured; 2: somewhat injured; 1: slightly injured; 0: not injured (normally grown); details: 4 weeks after treatment
Method: as §1, with “to Example 8, in suspended” for “to Example 14, in suspended”, “conducted as to that of” for “conducted as that of”

paddy rice = test: Experiment 7 flooded soil treatment: injury to paddy rice; assay type: in vivo; set-up: key: 5: completely killed; 4: seriously injured; 3: considerably injured; 2: somewhat injured; 1: slightly injured; 0: not injured (normally grown); details: evaluated 4 weeks after treatment
Text: (§2) Paddy soil (clay loam) was put into a pot so as to have a surface area of 1/15500 ares. Uniformly mixed seeds of several kinds of weeds, viz., nobie (barnyardgrass, Echinochloa spp.), broad-leaved weeds, hotarui (bulrush, Scirpus juncoides) and tamagayatsuri (small-flowered umbrellaplant, Cyperus difformis), were sown in the surface layer of the soil in each pot, and then paddy rice seedlings at the two- or three-leaved stage were transplanted into each pot to a depth of 2 cm, and water was fed into each pot so as to provide a 3 cm deep water layer on the soil surface. After 3 days, in other words at the initial stage of germination of nobie (barnyardgrass, Echinochloa spp.), a predetermined amount of a selected compound obtained in a manner analogous to Example 14 in the form of diluted aqueous solution was dropped into the water layer in each pot. After that, the pots were kept in a glass chamber to allow the paddy rice and the weeds to grow, and after the lapse of 4 weeks from the treatment with the selected compounds, the herbicidal effects and the degree of injury to the paddy rice were evaluated. The evaluation of the herbicidal effects was similarly conducted as that of Experiment 1.

[13] = tested on: mehishiba (henry crabgrass, Digitaria cliaris); test: Experiment 8 foliage treatment: mehishiba; assay type: in vivo; set-up: key: 5: completely killed; 4: seriously injured; 3: considerably injured; 2: somewhat injured; 1: slightly injured; 0: not injured (normally grown); details: foliage spray of wettable powder suspension, evaluated 4 weeks after treatment
Method in brief: (§3)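 Compound applied as a suspended wettable powder, sprayed onto plants at the two- or three-leaved stage, grown in cultivated soil in pots. Plants were kept in a glass chamber and herbicidal effect was scored 4 weeks after treatment, using the scoring of Experiment 1.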

rice = test: Experiment 8 foliage treatment: rice; assay type: in vivo; set-up: key: 5: completely killed; 4: seriously injured; 3: considerably injured; 2: somewhat injured; 1: slightly injured; 0: not injured (normally grown); details: foliage spray of wettable powder suspension, evaluated 4 weeks after treatment
Method in brief: as §3

[14] = tested on: aobiyu (slender amaranth, Amaranthus viridis); test: Experiment 8 foliage treatment: aobiyu; assay type: in vivo; set-up: key: 5: completely killed; 4: seriously injured; 3: considerably injured; 2: somewhat injured; 1: slightly injured; 0: not injured (normally grown); details: foliage spray of wettable powder suspension, evaluated 4 weeks after treatment
Method in brief: as §3

broad-leaved weeds = test: Experiment 7 flooded soil treatment: broad-leaved weeds; assay type: in vivo; set-up: key: 5: completely killed; 4: seriously injured; 3: considerably injured; 2: somewhat injured; 1: slightly injured; 0: not injured (normally grown); details: evaluated 4 weeks after treatment
Text: as §2

[15] = tested on: cockspur (Panicum crus-galli); test: Experiment 8 foliage treatment: cockspur; assay type: in vivo; set-up: key: 5: completely killed; 4: seriously injured; 3: considerably injured; 2: somewhat injured; 1: slightly injured; 0: not injured (normally grown); details: foliage spray of wettable powder suspension, evaluated 4 weeks after treatment
Method in brief: as §3

[16] = tested on: nobie (barnyardgrass, Echinochloa spp.); test: Experiment 7 flooded soil treatment: nobie; assay type: in vivo; set-up: key: 5: completely killed; 4: seriously injured; 3: considerably injured; 2: somewhat injured; 1: slightly injured; 0: not injured (normally grown); details: evaluated 4 weeks after treatment
Text: as §2

garden radish = test: Experiment 8 foliage treatment: garden radish; assay type: in vivo; set-up: key: 5: completely killed; 4: seriously injured; 3: considerably injured; 2: somewhat injured; 1: slightly injured; 0: not injured (normally grown); details: foliage spray of wettable powder suspension, evaluated 4 weeks after treatment
Method in brief: as §3

[17] = tested on: tamagayatsuri (small-flowered umbrellaplant, Cyperus difformis); test: Experiment 7 flooded soil treatment: tamagayatsuri; assay type: in vivo; set-up: key: 5: completely killed; 4: seriously injured; 3: considerably injured; 2: somewhat injured; 1: slightly injured; 0: not injured (normally grown); details: evaluated 4 weeks after treatment
Text: as §2

[18] = tested on: hotarui (bulrush, Scirpus juncoides); test: Experiment 7 flooded soil treatment: hotarui; assay type: in vivo; set-up: key: 5: completely killed; 4: seriously injured; 3: considerably injured; 2: somewhat injured; 1: slightly injured; 0: not injured (normally grown); details: evaluated 4 weeks after treatment
Text: as §2

Structure (SMILES) | Herbicidal Effet ooinutade ([1]; 4 g/10a) | Herbicidal Effet ooinutade ([1]; 8 g/10a) | Herbicidal Effet onamomi ([4]; 4 g/10a) | Herbicidal Effet onamomi ([4]; 8 g/10a) | Herbicidal Effet noasagao ([8]; 4 g/10a) | Herbicidal Effet noasagao ([8]; 8 g/10a) | Herbicidal Effet ichibi ([10]; 4 g/10a) | Herbicidal Effet ichibi ([10]; 8 g/10a) | Injury of Paddy (paddy rice; 6.25 g/10a) | Injury of Paddy (paddy rice; 12.5 g/10a) | Herbicidal Effect mehishiba ([13]; 40 g/10a) | Herbicidal Effect mehishiba ([13]; 80 g/10a) | Herbicidal Effect rice (rice; 40 g/10a) | Herbicidal Effect rice (rice; 80 g/10a) | Herbicidal Effect aobiyu ([14]; 40 g/10a) | Herbicidal Effect aobiyu ([14]; 80 g/10a) | Herbicidal Effect broad-leaved weed (broad-leaved weeds; 6.25 g/10a) | Herbicidal Effect broad-leaved weed (broad-leaved weeds; 12.5 g/10a) | Herbicidal Effect cockspur ([15]; 40 g/10a) | Herbicidal Effect cockspur ([15]; 80 g/10a) | further results
CCc1cnc(C2=NC(C)(C(C)C)C(=O)N2)c(C(=O)O)c1 (stereo not drawn) [Comparative agentC, Pursuit, reference compound] | 5 | 5 | 4 | 5 | 3 | 4 | 3 | 3 |  |  |  |  |  |  |  |  |  |  |  |  | Herbicidal Effect ooinutade ([2]; 4 g/10a): 5; Herbicidal Effect ooinutade ([2]; 8 g/10a): 5; Herbicidal Effect ichibi ([3]; 4 g/10a): 3; Herbicidal Effect ichibi ([3]; 8 g/10a): 3; Herbicidal Effect noasagao ([5]; 4 g/10a): 3; Herbicidal Effect noasagao ([5]; 8 g/10a): 4; Herbicidal Effect ichibi ([6]; 4 g/10a): 3; Herbicidal Effect ichibi ([6]; 8 g/10a): 3; Herbicidal Effect ooinutade ([7]; 4 g/10a): 5; Herbicidal Effect ooinutade ([7]; 8 g/10a): 5; Herbicidal Effect noasagao ([9]; 4 g/10a): 3; Herbicidal Effect noasagao ([9]; 8 g/10a): 4; Herbicidal Effect onamomi ([11]; 4 g/10a): 4; Herbicidal Effect onamomi ([11]; 8 g/10a): 5; Herbicidal Effect onamomi ([12]; 4 g/10a): 4; Herbicidal Effect onamomi ([12]; 8 g/10a): 5
C#CC(C)Oc1cc(N(C(=O)C2=C(C(=O)OCCCC)CCCC2)C(=O)c2ccsc2)c(F)cc1Cl (stereo not drawn) [compound 102] | 4 | 5 | 5 | 5 | 4 | 5 | 5 | 5 | 0.5 | 0.5 | 1 | 1 | 1 | 1 | 5 | 5 | 5 | 5 | 1 | 1 | Herbicidal Effect nobie ([16]; 6.25 g/10a): 5; Herbicidal Effect nobie ([16]; 12.5 g/10a): 5; Herbicidal Effect garden radish (garden radish; 40 g/10a): 5; Herbicidal Effect garden radish (garden radish; 80 g/10a): 5; Herbicidal Effect tamagayatsuri ([17]; 6.25 g/10a): 5; Herbicidal Effect tamagayatsuri ([17]; 12.5 g/10a): 5; Herbicidal Effect hotarui ([18]; 6.25 g/10a): 4; Herbicidal Effect hotarui ([18]; 12.5 g/10a): 4
COC(=O)Cc1sc(F)c(N(C(C)=O)C(=O)C2=C(C(=O)OC)CCCC2)c1Cl [compound 11, N-acetyl-N-(4-chloro-2-fluoro-5-methoxycarbonylmethylthiophenyl)-3,4,5,6-tetrahydrophthalamic acid methyl ester] |  |  |  |  |  |  |  |  |  |  |  |  |  |  |  |  |  |  |  |  | melting point: 124 to 124.5 °C
C#CC(C)Oc1cc(N(C(=O)C2=C(C(=O)OC)CCCC2)C(=O)c2cccs2)c(F)cc1Cl (racemic) [compound 91, N-[4-chloro-2-fluoro-5-(1-methylproparzyloxy)phenyl]-N-(2-thiophenecarboxy)-3,4,5,6-tetrahydrophthalamic acid methyl ester] | 5 | 5 | 4 | 5 | 4 | 5 | 5 | 5 | 0 | 0.5 | 1 | 1 | 1 | 1 | 5 | 5 | 5 | 5 | 1 | 1 | Herbicidal Effect nobie ([16]; 6.25 g/10a): 5; Herbicidal Effect nobie ([16]; 12.5 g/10a): 5; Herbicidal Effect garden radish (garden radish; 40 g/10a): 5; Herbicidal Effect garden radish (garden radish; 80 g/10a): 5; Herbicidal Effect tamagayatsuri ([17]; 6.25 g/10a): 5; Herbicidal Effect tamagayatsuri ([17]; 12.5 g/10a): 5; Herbicidal Effect hotarui ([18]; 6.25 g/10a): 4; Herbicidal Effect hotarui ([18]; 12.5 g/10a): 5

From patent US6337417B1, “N-phenyltetrahydrophthalamic acid derivatives, methods of producing same, and herbicides containing same as effective components” (Central Glass Co., Ltd., priority 1994, dated 2002)
